Source: patent publication US5641760A, “Method of treating candida infection” (Pence, Inc., priority 1994, dated 1997)
pIC50: −log10 of the molar value.

What was measured:
[1] = system: Candida albicans strain #40 fimbriae (enriched fimbriae EF, 66 kDa fimbrial subunit/adhesin protein); experiment: Thin-layer chromatography plate binding assay of fimbriae to glycosphingolipids; details: 10 μg GSL per spot; 100 μg EF/ml; detected with mAb Fm16
Description: Bound fimbriae on the TLC plates were visualized with a Protein G affinity-purified anti-C. albicans fimbriae monoclonal antibody, Fm16, obtained from ascites tumor in Balb/c mice as described below and a goat anti-mouse IgG alkaline phosphatase. […] (Lane 2).
The thin-layer chromatography (TLC) plate binding assay was performed as described by Baker et al. (1) with minor modifications. Aluminum-backed silica gel Si60 high performance TLC plates (Merck Kieselgel Si60, no fluorescence indicator, E. Merck, Darmstadt, Germany) were cut to produce 8×2.5 cm plates which were chromatographed with 100% methanol to the top of the plate to remove impurities and the plates were air dried. Glycosphingolipids (GSLs) (10 μg of each GSL) were loaded 1.0 cm above the base of the plate. The following glycosphingolipids purchased from Sigma Co. (St. Louis, Mo.) were used: mono-sialoganglioside (M-GM1), asialoganglioside GM1 (asialo-GM1), asialoganglioside GM2 (asialo-GM2), lactosylcerebroside (LCS), ceramide trihexoside (CTH). GSLs were separated on the TLC plates in chloroform-methanol-water (65:35:8, v/v/v) and air dried. One set of plates was sprayed with 10% sulphuric acid in ethanol and heated at 100°-150° C. for 5-10 min to char the GSLs for visual detection, and the other set was used for the fimbrial binding assay. The four corners of the plate were bent to 90° and the remainder of the assay was done with the TLC plates inverted in all solutions and at room temperature in an incubator shaker (model G25 Gyroshaker, New Brunswick Scientific, New Jersey, U.S.A.) at 20 rpm agitation. The TLC plate was blocked with 50 mM tris-hydroxy-methyl aminomethane pH 7.5 containing 150 mM NaCl (TBS), 0.25% (w/v) gelatin, 3% (w/v) BSA, 5 mM EDTA and 0.05% (v/v) Nonidet P40 in a glass petri dish for 2 hr at room temperature. The blocking solution was aspirated and 10 ml of EF (100 μg EF/ml in 100 mM TBS, pH 7.5) was then added. The fimbriae were allowed to bind to GSLs for 2 hours at room temperature. The plates were gently washed (2×5 min) with 10 ml of 100 mM TBS containing 0.1% (v/v) Tween 20 (TBST). The murine anti-EF monoclonal antibody, Fm16, was diluted 1:200 with TBST and 10 ml was added to the TLC plates. The solution was incubated for 1 hour at room temperature. Unbound antibodies were removed by washing the plates with 10 ml of TBST (2×5 min). The plate was then incubated with 10 ml of goat anti-mouse immunoglobulin G alkaline phosphatase conjugate (Jackson Laboratories) diluted 1:5,000 with TBST for 1 hour at room temperature. The plates were washed (2×5 min.) with 10 ml of TBST. The alkaline phosphatase activity was localized with Nitro Blue Tetrazolium chloride (NBT) and 5-bromo-4-chloro-3-indolyl phosphate (BCIP) dissolved in 100 mM Tris buffer, pH 9.5 containing 100 mM NaCl and 5 mM MgCl2. Color development was quenched by rinsing the TLC plate with deionized water and submerging the plate into a 150 mM EDTA solution pH 8.0 for 3-5 min. The plates were air dried, stored in plastic in the dark until they were photographed.

[2] = system: Candida albicans strain #40 fimbriae (enriched fimbriae EF, 66 kDa fimbrial subunit/adhesin protein); experiment: Inhibition of fimbriae binding to immobilized βGalNAc(1-4)βGal-BSA conjugate; details: plates coated with 10 μg/ml conjugate; read-out: Half-maximal inhibition of fimbriae binding to βGalNAc(1-4)βGal-BSA conjugate
Description: Further experiments to determine the specificity of fimbrial binding to GSLs were carried out using a plate binding assay, as described above, but immobilizing on the plates a βGalNAc(1-4)βGal-BSA conjugate, synthesized from βGalNAc(1-4)βGal-O(CH2)8 COOCH3 (Sabesan and Lemieux), as described in Part B, above. The coupling ratio of disaccharide: BSA was 12:1. The protocol utilized for this assay was similar to that employed for the assessment of C. albicans fimbriae binding to GSLs except that the plates were coated with 100 μl/well of a 10 μg/ml solution of synthetic βGalNAc(1-4)βGal-BSA conjugate in 0.01M carbonate buffer, pH 9.5.
Using this assay, it was first determined that fimbriae bind to the βGalNAc(1-4)βGal-BSA conjugate in a saturable, concentration-dependent manner. FIGS. 12A and 12B show the results of experiments in which compounds were tested for ability to inhibit binding of fimbriae to the βGalNAc(1-4)βGal-BSA conjugate. The protocol used in this assay was similar to the one used in the GSL inhibition assay described above, except that the plates were coated with 100 μl/well of a 10 μg/ml solution of synthetic βGalNAc(1-4)βGal-BSA conjugate in 0.01M carbonate buffer, pH 9.5. As depicted in FIG. 12A, βGalNAc(1-4)βGal-methylester ("GalNAcGal") was able to inhibit binding to the GalNAcGal-BSA conjugate in a concentration dependent manner. […]

[3] = system: Candida albicans fimbriae (binding to human BECs); experiment: Inhibition of fimbriae binding to human buccal epithelial cells (BECs); assay type: cell-based; details: fimbriae 50 μg preincubated with competitor 1 h at 37° C.; 2.0×10^5 BECs; competitor concentration not stated
Description: The percent inhibition is the inhibition of binding in the presence of the competing antigens with respect to binding observed in the absence of any competitors.
The fimbrial adherence assay was performed using a Manifold filtration apparatus equipped with individual vacuum stopcocks (Model FH 225V, Hoefer Scientific Instruments). Polycarbonate filters, 12 μm pore size (Nucleopore Costar Corp.), were pre-incubated overnight at 4° C. with 50 ml of PBS pH 7.2, containing 0.45% (v/v) Tween 20. The pretreated filters were placed into each chamber and washed with 2.5 ml of PBS. 1 ml containing 2.0×10^5 BECs in PBS was added to each chamber. Enriched fimbriae (100 μl/chamber, ranging from 0 to 80 μg fimbriae protein/ml) in PBS containing 0.05% (v/v) Tween-20 was added to each chamber and incubated with the BECs for 1.5 hours at room temperature. Unbound fimbriae were removed with washes of 2.5 ml of PBS. Mouse anti-C. albicans fimbriae monoclonal antibody (ascites fluid diluted 1:3000 with PBS) was added to the BECs (1.2 ml/chamber) and incubated for 1.5 hour at room temperature. BECs were washed five times with 2.5 ml of PBS. Goat anti-mouse IgG(H+L)-peroxidase conjugates (Jackson Laboratories) diluted 1:5000 with PBS was added (1.0 ml/chamber) and incubated for another hour at room temperature. The cells were then washed seven times with 2.5 ml/chamber of PBS. The polycarbonate filters containing BECs were removed from the filtration manifold and placed into glass scintillation vials. The horseradish peroxidase substrate solution (ABTS) was added to each vial (1 ml/vial) and incubated for 30 min at room temperature on a shaker at 100 rpm. The reaction was stopped by the addition of 4 mM sodium azide (200 μl/vial). The substrate solution was pipetted into Eppendorf tubes and centrifuged at 5,000 g for 3 minutes. Aliquots of the supernatants were pipetted into microtiter wells (200 μl/well) and the resulting absorbance at 405 nm was recorded with a Titertek Multiskan Plus microplate recorder. […]

[4] = system: Candida albicans (binding to human buccal epithelial cells); experiment: Inhibition of C. albicans whole cell binding to human BECs; assay type: cell-based; details: fungal cells exposed to increasing concentrations, then mixed with BECs
Description: Further experiments were carried out to determine the ability of βGalNAc(1-4)βGal-methylester ("GalNAcGal") to inhibit binding between whole BECs and Candida albicans.
C. albicans cells were radiolabelled as previously described by McEachran and Irvin (35, 48), incorporated herein by reference. A loopful of culture from Sabouraud-dextrose agar (GIBCO) was used as a source of inoculum for 10 ml of M9 medium supplemented with 0.4% (w/v) glucose. Cultures were incubated at 25° C. for 12 hours with 150 rpm agitation in G25 Gyrotory shaker (New Brunswick Scientific Co.). Cultures were supplemented with 5 μCi/ml of [^35 S]-L-methionine (New England Nuclear, Boston, Mass.) after 10 hours of incubation. […] The amount of [^35 S]-L-methionine incorporated by the C. albicans cells was determined by filtering 1.0 ml of a 1:100 dilution of washed C. albicans culture through a 0.2 μm polycarbonate filter (Nucleopore Corp., Pleasanton, Calif.) in triplicate, washing with 15 ml of PBS, and placing the filter in scintillation vials with 5.0 ml of Aquasol (New England Nuclear, Massachusettes). The counts per minute were determined with a Beckman LS-150 liquid-scintillation counter. […]
In a similar manner, experiments were carried out testing the ability of βGalNac(1-4)βGal to inhibit binding of C. albicans to BECs. […] Total cell counts were determined using a hemocytometer. […]

Molecule	Binding of C. albicans fimbriae to glycosphingolipid on TLC plate [1]	pIC50 [2]	Inhibition of C. albicans fimbriae binding to BECs [3]	Inhibition of binding between whole BECs and Candida albicans [4]
lactosyl cerebroside [LCS]	failed to bind			
COC(=O)CCCCCCCCO[C@@H]1O[C@H](CO)[C@H](O[C@@H]2O[C@H](CO)[C@H](O)[C@H](O)[C@H]2NC(C)=O)[C@H](O)[C@H]1O [βGalNAc(1-4)βGal-methylester]		5.09	70%	inhibited the fungal cell-BEC interaction in a concentration dependent manner
gangliotriosylceramide: βGalNAc(1-4)βGal(1-4)βGlc(1-1)Cer [asialo-GM2]	bind specifically			
mono-sialoganglioside [GM1]	failed to bind			
